Holding throughout (format): cell-based
For one assay, the system named is U937 cell line. In words: Cell inhibition assay (SRB cell viability), U937. The conditions noted are these: Homo sapiens, U-937, IC50 range class, 72 h, read-out: Inhibitor Activity vs U937 cell line. The procedure:
(§1) The corresponding cancer cell lines (U937, HCT 116 and HUT) growing in log phase were harvested and seeded at 1000 cells/well (200 ul final volume) into 96-well tissue culture plates. Following 24 h of cell growth cells were treated with compounds (final concentration of 20 uM). Plates were then re-incubated for a further 72 h before a sulphorhodamine B (SRB) cell viability assay was conducted according to Skehan 1990 J Natl Canc Inst 82, 1107-1112.
(§2) Data were expressed as a percentage inhibition of the control, measured in the absence of inhibitor, as follows: — % inhibition=100−((S^i/S^o)×100) where S^i is the signal in the presence of inhibitor and S^o is the signal in the presence of DMSO.
(§3) IC50 values were determined by non-linear regression analysis, after fitting the results of eight data points to the equation for sigmoidal dose response with variable slope (% activity against log concentration of compound), using Graphpad Prism software.

For the next assay, the system named is HCT 116 cell line. In words: Cell inhibition assay (SRB cell viability), HCT 116. The conditions noted are these: Homo sapiens, IC50 range class, 72 h, read-out: Inhibitor Activity vs HCT 116 cell line. The procedure:
as §1, §2, §3

The test system of the next assay is HUT cell line. In words: Cell inhibition assay (SRB cell viability), HUT. The conditions noted are these: IC50 range class, 72 h, read-out: Inhibitor Activity vs HUT cell line. The procedure: as §1, §2, §3

Counter-ions that a name gives are not always drawn. Bounds are passed on as bounds.

With `COc1cc2c(Oc3ccc(NC(=O)Nc4ccc5c(c4)CCC5)cc3)ccnc2cc1OCC[C@H](N)C(=O)OC1CCCC1` [Example 97, (S)-2-Amino-4-{4-[4-(3-indan-5-yl-ureido)-phenoxy]-6-methoxy-quinolin-7-yloxy}-butyric acid cyclopentyl ester], the IC50 in the assay on U937 cell line, with HCT 116 cell line and in the assay with HUT cell line was less than 1000 nM throughout.

As for `COc1cc2c(Oc3ccc(NC(=O)c4ccc(C(F)(F)F)cc4)cc3)ccnc2cc1OCC[C@@H](N)C(=O)OC1CCCC1` [Example 103, (R)-2-Amino-4-{6-methoxy-4-[4-(4-trifluoromethyl-benzoylamino)-phenoxy]-quinolin-7-yloxy}-butyric acid cyclopentyl ester], the IC50 in the assay with U937 cell line, with HCT 116 cell line and in the assay with HUT cell line was less than 1000 nM each time.

In the case of `COc1cc2c(Nc3cnc(NC(=O)c4ccccc4)nc3)ccnc2cc1OCC[C@H](N)C(=O)OC1CCCC1` [Example 25, (S)-2-Amino-4-[4-(2-benzoylamino-pyrimidin-5-ylamino)-6-methoxy-quinolin-7-yloxy]-butyric acid cyclopentyl ester], the IC50 with U937 cell line, in the assay on HCT 116 cell line and with HUT cell line was 1000 to 5000 nM throughout.

In the case of `COc1cc2c(Oc3ccc(NC(=O)c4ccccc4)cc3)ccnc2cc1OCC[C@H](N)C(=O)OCc1ccccc1` [Example 52, (S)-2-Amino-4-[4-(4-benzoylamino-phenoxy)-6-methoxy-quinolin-7-yloxy]-butyric acid benzyl ester], the IC50 with U937 cell line, with HCT 116 cell line and with HUT cell line was less than 1000 nM in each case.

As to `COc1cc2c(Nc3cnn(CC(=O)Nc4cccc(F)c4)c3)ccnc2cc1OCC[C@H](N)C(=O)OC1CCCC1` [Example 24, (S)-2-Amino-4-(4-{1-[(3-fluoro-phenylcarbamoyl)-methyl]-1H-pyrazol-4-ylamino}-6-methoxy-quinolin-7-yloxy)-butyric acid cyclopentyl ester], the IC50 with U937 cell line, in the assay with HCT 116 cell line and with HUT cell line was more than 5000 nM in each case.

Take `COc1cc2c(Oc3ccc(CNC(=O)c4ccccc4)cc3)ccnc2cc1OCC[C@H](N)C(=O)OC1CCCC1` [Example 141, (S)-2-Amino-4-{4-[4-(benzoylamino-methyl)-phenoxy]-6-methoxy-quinolin-7-yloxy}-butyric acid cyclopentyl ester]: the IC50 in the assay on U937 cell line, with HCT 116 cell line and in the assay on HUT cell line was less than 1000 nM in each case.

Turning to `COc1cc2c(Oc3ccc(NC(=O)c4ccc(C(F)(F)F)cc4)cc3F)ccnc2cc1OCC[C@@H](N)C(=O)OC1CCCC1` [Example 106, (R)-2-Amino-4-{4-[2-fluoro-4-(4-trifluoromethyl-benzoylamino)-phenoxy]-6-methoxy-quinolin-7-yloxy}-butyric acid cyclopentyl ester], the IC50 with U937 cell line, in the assay with HCT 116 cell line and in the assay with HUT cell line was less than 1000 nM in each case.

For the molecule `COc1cc2c(Oc3ccc(NC(=O)c4ccccc4)cc3)ccnc2cc1OCC[C@H](N)C(=O)OC12CCC(CC1)C2` [Example 47, (S)-2-Amino-4-[4-(4-benzoylamino-phenoxy)-6-methoxy-quinolin-7-yloxy]-butyric acid bicyclo[2.2.1]hept-1-yl ester], the IC50 in the assay with U937 cell line, in the assay with HCT 116 cell line and with HUT cell line was less than 1000 nM each time.

In the case of `COc1cc2c(Oc3ccc(NC(=O)c4ccccc4)cn3)ccnc2cc1OCC[C@H](N)C(=O)OC1CCCC1` [Example 134], the IC50 in the assay on U937 cell line, with HCT 116 cell line and in the assay with HUT cell line was less than 1000 nM each time.

Turning to `COc1cc2c(Oc3cccc(F)c3)ccnc2cc1OCC[C@H](N)C(=O)OC1CCCC1` [Example 5, (S)-2-Amino-4-[4-(3-fluoro-phenoxy)-6-methoxy-quinolin-7-yloxy]-butyric acid cyclopentyl ester], the results for the IC50 in the assay with U937 cell line, in the assay on HCT 116 cell line and in the assay on HUT cell line were 1000 to 5000 nM, more than 5000 nM and 1000 to 5000 nM, respectively.

Take `COc1cc2c(Oc3ccc(NC(=O)c4ccccc4)cc3)ccnc2cc1OCC[C@H](N)C(=O)OC1CCC(C)C1` (stereo partly drawn) [Example 46, (S)-2-Amino-4-[4-(4-benzoylamino-phenoxy)-6-methoxy-quinolin-7-yloxy]-butyric acid 3-methyl-cyclopentyl ester]: the IC50 with U937 cell line, in the assay on HCT 116 cell line and in the assay on HUT cell line was less than 1000 nM in each case.

With `CCN(CC)[C@@H](CCOc1cc2nccc(Oc3ccc(NC(=O)c4ccccc4)cc3)c2cc1OC)C(=O)OC1CCCC1` [Example 41, (S)-4-[4-(4-Benzoylamino-phenoxy)-6-methoxy-quinolin-7-yloxy]-2-diethylamino-butyric acid cyclopentyl ester], the IC50 in the assay on U937 cell line, in the assay with HCT 116 cell line and in the assay with HUT cell line was 1000 to 5000 nM each time.

Regarding `COc1cc2c(Oc3ccc(NC(=O)c4ccccc4)cc3OC)ccnc2cc1OCC[C@H](N)C(=O)OC1CCCC1` [Example 132, (S)-2-Amino-4-[4-(4-benzoylamino-2-methoxy-phenoxy)-6-methoxy-quinolin-7-yloxy]-butyric acid cyclopentyl ester], the IC50 is less than 1000 nM in the assay with U937 cell line, 1000 to 5000 nM with HCT 116 cell line and 1000 to 5000 nM with HUT cell line.

Consider `COc1cc2c(Oc3ccc(NC(=O)c4ccccc4)cc3)ccnc2cc1OCC[C@H](N)C(=O)OC1CCCC1C` (stereo partly drawn) [Example 49, (S)-2-Amino-4-[4-(4-benzoylamino-phenoxy)-6-methoxy-quinolin-7-yloxy]-butyric acid 2-methyl-cyclopentyl ester], for which the IC50 in the assay on U937 cell line, in the assay on HCT 116 cell line and in the assay with HUT cell line was less than 1000 nM in each case.

As for `COc1cc2c(Oc3ccc4sc(C)nc4c3)ccnc2cc1OCC[C@H](N)C(=O)OC1CCCC1` [Example 12, (S)-2-Amino-4-[6-methoxy-4-(2-methyl-benzothiazol-5-yloxy)-quinolin-7-yloxy]-butyric acid cyclopentyl ester], the IC50 in the assay with U937 cell line is 1000 to 5000 nM; with HCT 116 cell line, more than 5000 nM; in the assay on HUT cell line, more than 5000 nM.

As for `COc1cc2c(Oc3ccc(NS(=O)(=O)c4ccccc4)cc3)ccnc2cc1OCC[C@H](N)C(=O)OC1CCCC1` [Example 73, (S)-2-Amino-4-[4-(4-benzenesulfonylamino-phenoxy)-6-methoxy-quinolin-7-yloxy]-butyric acid cyclopentyl ester], the IC50 with U937 cell line is 1000 to 5000 nM; in the assay with HCT 116 cell line, more than 5000 nM; in the assay with HUT cell line, 1000 to 5000 nM.

`COc1cc2c(Nc3cnn(CC(=O)Nc4ccccc4)c3)ccnc2cc1OCC[C@H](N)C(=O)OC1CCCC1` [Example 22, (S)-2-Amino-4-[6-methoxy-4-(1-phenylcarbamoylmethyl-1H-pyrazol-4-ylamino)-quinolin-7-yloxy]-butyric acid cyclopentyl ester]: the values for the IC50 with U937 cell line, in the assay on HCT 116 cell line and with HUT cell line were 1000 to 5000 nM, more than 5000 nM and more than 5000 nM, respectively.

Turning to `COc1cc2c(Sc3ccc(NC(=O)Nc4ccc(C(F)(F)F)cc4)cc3)ccnc2cc1OCCC[C@@H](N)C(=O)OC1CCCC1` [Example 121, (R)-2-Amino-5-(6-methoxy-4-{4-[3-(4-trifluoromethyl-phenyl)-ureido]-phenylsulfanyl}-quinolin-7-yloxy)-pentanoic acid cyclopentyl ester], the IC50 in the assay with U937 cell line, with HCT 116 cell line and in the assay with HUT cell line was less than 1000 nM throughout.

Take `COc1cc2c(Oc3ccc(NC(=O)c4ccccc4)cc3)ccnc2cc1OCC1CCN(CC[C@H](N)C(=O)OC2CCCC2)CC1` [Example 136, (S)-2-Amino-4-{4-[4-(4-benzoylamino-phenoxy)-6-methoxy-quinolin-7-yloxymethyl]-piperidin-1-yl}-butyric acid cyclopentyl ester]: the IC50 in the assay with U937 cell line, with HCT 116 cell line and in the assay on HUT cell line was less than 1000 nM throughout.

As to `COc1cc2c(Nc3cnc(NC(=O)c4ccccc4)nc3)ncnc2cc1OCC[C@H](N)C(=O)OC1CCCC1` [Example 31, (S)-2-Amino-4-[4-(2-benzoylamino-pyrimidin-5-ylamino)-6-methoxy-quinazolin-7-yloxy]-butyric acid cyclopentyl ester], the IC50 in the assay with U937 cell line, in the assay with HCT 116 cell line and with HUT cell line was more than 5000 nM in each case.

Turning to `COc1cc2c(Oc3ccc(NC(=O)c4ccccc4)cc3)ccnc2cc1OC[C@@H]1CCCN1CC[C@H](N)C(=O)OC1CCCC1` [Example 135, (S)-2-Amino-4-{(S)-2-[4-(4-benzoylamino-phenoxy)-6-methoxy-quinolin-7-yloxymethyl]-pyrrolidin-1-yl}-butyric acid cyclopentyl ester], the IC50 is less than 1000 nM with U937 cell line, 1000 to 5000 nM with HCT 116 cell line and 1000 to 5000 nM in the assay on HUT cell line.

For the molecule `COc1cc2c(Nc3ccc(NC(=O)c4ccccc4)cc3)c(Br)cnc2cc1OCC[C@H](N)C(=O)OC1CCCC1` [Example 33, Dihydrochloride], the IC50 in the assay on U937 cell line is 1000 to 5000 nM; in the assay with HCT 116 cell line it was more than 5000 nM; in the assay on HUT cell line it was 1000 to 5000 nM.

Turning to `COc1cc2c(Oc3ccc(NC(=O)c4ccccc4)cc3)ccnc2cc1OC1CCN(CC[C@H](N)C(=O)OC2CCCC2)C1` (stereo partly drawn) [Example 137, (S)-2-Amino-4-{3-[4-(4-benzoylamino-phenoxy)-6-methoxy-quinolin-7-yloxy]-pyrrolidin-1-yl}-butyric acid cyclopentyl ester], the IC50 in the assay with U937 cell line is less than 1000 nM; in the assay with HCT 116 cell line it was 1000 to 5000 nM; in the assay with HUT cell line, less than 1000 nM.

The values above are taken from US8148531B2 (Chroma Therapeutics Ltd., priority 2005, dated 2012).
